Data reported in patent publication US11844845B2, “Cell penetrating peptide, conjugate comprising same, and composition comprising conjugate” (GEMVAX & KAEL CO., LTD., priority 2012, dated 2023).

Test system: HeLa cell
Assay: Cell penetration of pep(CPP)-FITC conjugate in HeLa cell line, flow cytometry (FACS)
Type: cell-based, Homo sapiens
Conditions: HeLa cells, 20 uM FITC-fused peptide, 37° C. for an hour, control = FITC only
Protocol: Homo sapiens cervix adenocarcinoma cell line as HeLa cell lines were purchased from ATCC (American Type Cell Culture). The cells were cultured in MEM supplemented with 10% fetal bovine serum (Invitrogen, USA), Earle's salts, non-essential amino acids, sodium pyruvate and 100 μg/ml penicillin and 10 units/ml streptomycin and cultured at 37° C., 5% CO2 incubator.
Flow cytometry and Confocal microscope analysis were performed to compare the between degree of cellular uptake of the cells were treated with SEQ ID NO: 2 to SEQ ID NO: 178, pep (CPP) and control.
The cell line was divided in a 6-well plate and cultured in a medium containing 10% fetal bovine serum (Invitrogen, USA), 100 μg/ml penicillin, 100 units/ml streptomycin at 37° C. 5% CO2 incubator for 12 hours. After washing the cell line with PBS, starvation was induced in a Minimum Essential Medium for an hour. 20 uM of each carrier peptide was treated and cultured at 37° C. for an hour. After repeating the step of washing the cells with PBS for three times, Trypsin-EDTA was treated form 10 mins at 37° C. to separate the carrier peptide on the outside of the cell. cells were collected with refrigerated PBS and centrifugation was performed to repeat the step of washing the cells for three times. After then, the cells were suspended in 0.5 ml of PBS containing 4% Paraformaldehyde and fluorescence of the cells was analyzed using FACS Calibur (Becton Dickinson). The cellular uptake aspect of control and various peptides combined with FITC was compared and analyzed by MFI (Mean Fluorescence Intensity).
Analysis results shown in FIGS. 2 to 29 are given in detail in Table 7 below.

Row | Substance | cellular uptake, MFI (Mean Fluorescence Intensity)
1 | REARPALLTSRLRFIPKPDGLRPI (listed as Homo sapiens) [Pep-RIA-63] | 19.72 ± 0.33
2 | RELSEAEVRQHREARPALLTSRLRFIPK (listed as Homo sapiens) [Pep-RIA-12] | 12.93 ± 0.18
3 | RFIPK (listed as Homo sapiens) [Pep-RIA-101] | 12.35 ± 0.28
4 | RLRFIPK (listed as Homo sapiens) [Pep-RIA-99] | 17.45 ± 0.19
5 | RPA (listed as Homo sapiens) [Pep-RIA-129] | 11.18 ± 0.97
6 | RPAL (listed as Homo sapiens) [Pep-RIA-128] | 12.41 ± 0.16
7 | RPALL (listed as Homo sapiens) [Pep-RIA-127] | 12.15 ± 0.89
8 | RPALLT (listed as Homo sapiens) [Pep-RIA-126] | 11.51 ± 1.84
9 | RPALLTS (listed as Homo sapiens) [Pep-RIA-125] | 11.07 ± 0.55
10 | RPALLTSRLR (listed as Homo sapiens) [Pep-RIA-123] | 17.31 ± 0.68
11 | RPALLTSRLRF (listed as Homo sapiens) [Pep-RIA-122] | 23.8 ± 1.54
12 | RPALLTSRLRFI (listed as Homo sapiens) [Pep-RIA-105] | 19.4 ± 0.59
13 | RPALLTSRLRFIP (listed as Homo sapiens) [Pep-RIA-121] | 20.72 ± 0.33
14 | RPALLTSRLRFIPK (listed as Homo sapiens) [Pep-RIA-92] | 26.28 ± 0.38
15 | RQHREARPALLISRLRFIPKPD (RQHREARPALLTSRLRFIPKPD; listed as Homo sapiens) [Pep-RIA-25] | 17.41 ± 0.32
16 | RQHREARPALLTSRLRFIPK (listed as Homo sapiens) [Pep-RIA-4] | 27.25 ± 0.79
17 | RQHREARPALLTSRLRFIPKP (listed as Homo sapiens) [Pep-RIA-24] | 19.42 ± 0.72
18 | RQHREARPALLTSRLRFIPKPDGL (listed as Homo sapiens) [Pep-RIA-27] | 19.69 ± 0.49

Row | Substance | cellular uptake, MFI (Mean Fluorescence Intensity)
19 | RQHREARPALLTSRLRFIPKPDGLR (listed as Homo sapiens) [Pep-RIA-36] | 14.07 ± 0.41
20 | RQHREARPALLTSRLRFIPKPDGLRP (listed as Homo sapiens) [Pep-RIA-47] | 17.6 ± 0.82
21 | RQHREARPALLTSRLRFIPKPDGLRPI (listed as Homo sapiens) [Pep-RIA-60] | 15.93 ± 1.84
22 | SEAEVRQHREARPALLTSRLRFIPK (listed as Homo sapiens) [Pep-RIA-9] | 12.7 ± 0.25
23 | SRL (listed as Homo sapiens) [Pep-RIA-169] | 5.64 ± 0.65
24 | SRLRFI (listed as Homo sapiens) [Pep-RIA-166] | 6.97 ± 0.53
25 | SRLRFIP (listed as Homo sapiens) [Pep-RIA-165] | 5.75 ± 0.41
26 | SRLRFIPK (listed as Homo sapiens) [Pep-RIA-98] | 14.04 ± 1.55
27 | TSRLRF (listed as Homo sapiens) [Pep-RIA-161] | 14.41 ± 0.81
28 | TSRLRFIP (listed as Homo sapiens) [Pep-RIA-159] | 12.58 ± 1.08
29 | TSRLRFIPK (listed as Homo sapiens) [Pep-RIA-97] | 13.68 ± 0.37
30 | VRQHREARPALLTSRLRFIPK (listed as Homo sapiens) [Pep-RIA-5] | 20.24 ± 0.34
31 | VRQHREARPALLTSRLRFIPKPDG (listed as Homo sapiens) [Pep-RIA-33] | 15.04 ± 0.68
32 | VRQHREARPALLTSRLRFIPKPDGL (listed as Homo sapiens) [Pep-RIA-34] | 16.37 ± 0.97
33 | VRQHREARPALLTSRLRFIPKPDGLR (listed as Homo sapiens) [Pep-RIA-35] | 13.22 ± 0.34
34 | VRQHREARPALLTSRLRFIPKPDGLRP (listed as Homo sapiens) [Pep-RIA-46] | 15.35 ± 0.92
35 | VRQHREARPALLTSRLRFIPKPDGLRPI (listed as Homo sapiens) [Pep-RIA-59] | 22.69 ± 0.66
